Measurements reported in patent US5349127A, “Expression of herbicide metabolizing cytochromes P450” (priority 1992, dated 1994).

Key:
[1] = tested on: transformed tobacco seedlings; assay: Kanamycin resistance of progeny of transformed tobacco (Example 22); format: in vivo, Nicotiana tabacum
Method: Growth medium was prepared from Murishige minimal organics medium (Gibco Laboratories, Grand Island, N.Y.), 8 g/l agar, supplemented with T vitamins (50 ppb biotin, 0.5 ppm pyridoxine HCl, 0.5 ppm thiamine HCl, 5 ppm nicotinic acid, 0.5 ppm folic acid, 2 ppm glycine, 100 ppm myo-inositol), sterilized and placed into sterile PlantCon plant tissue culture containers (Flow Laboratories, McLean, Va.). Tobacco seed obtained from the self-pollination of the primary transformants was surface sterilized by a treatment of not more than 30 min in 20% chlorine bleach, 0.1% sodium dodecyl sulfate, followed by rinsing in distilled water, and placed on the surface of the medium in the sterile containers. Following this treatment, the seed was allowed to germinate and grow under illumination (100 microeinsteins·m^-2 ·s^-1), at 22° C.
The number of loci where t-DNA was incorporated into the genome of the tobacco was determined by segregation analysis of kanamycin resistance in the next generation of progeny. Seed from the self pollination of the primary transformants was grown as described above on medium supplemented with 200 ppm kanamycin sulfate (Sigma). After 21 days, resistant (transformed) plants were unaffected compared to control plants, whereas sensitive plants were smaller, partially chlorotic, and poorly rooted. Determination of the number of genetic loci of the primary transformants was based on the segregation of the kanamycin resistance trait.
Copy number determination is from kanamycin sensitive segregation analysis of about 100 seed.

[2] = tested on: Arabidopsis thaliana seedlings; assay: Seed germination assay of transgenic Arabidopsis (Example 26); format: in vivo; details: Kanamycin 50 mg/l
Method: T2 seed was harvested from selected putative transformants and sown on GM medium containing 50 mg/l kanamycin and that containing 5 ppb 10015. Plates were sealed with filter tape, cold treated for 2 or more days at 4° C., and then incubated for 10 to 20 days at 23° C. under constant illumination as described above. Seedlings were scored as resistant (green, true leaves develop) and sensitive (no true leaves develop). […] The percent of resistant seedlings is inversely proportional with the two selections. Kanamycin is a positive selection for those seedlings that carry the foreign DNA.
Selected T2 seedlings that were kanamycin resistant were transplanted to soil and were grown to maturity at 21° C. daytime (14 hours) 18° C. nighttime (10 hours) at 65-80% relative humidity. T3 seed was collected, sterilized, and germinated on GM medium containing 50 mg/l kanamycin and that containing 5 ppb 10015. Plates were sealed with filter tape, cold treated for 2 or more days at 4° C., and then incubated for 10 to 20 days at 23° C. under constant illumination as described above. Two of the six plants produced seed that was 100% resistant to kanamycin and 100% sensitive to 10015; they are homozygous for the inserted DNA. The other four parents are heterozygous and show an inverse proportion of kanamycin and 10015 resistant seedlings. […] Therefore, seedlings expressing the P450SU1 gene can be negatively selected.
Germination assays of homozygous seed on various concentrations of 10015 were performed to assay the relative sensitivity to 10015 produced by the three different promoters and between independent transformants. Seed was sterilized, sown on GM medium with 0, 0.5, 1, 2, 5, 10 and 20 ppb 10015, incubated, and scored as described above. In addition, seedlings are rated on a scale of one to three for the amount of growth.
Over 500 seed that are homozygous for the P450SU1 coding region were sown on the same plates. The plates were sealed, cold-treated, and incubated as previously described. […] Wild type seedlings were unaffected by the dying transformed seedlings. In addition, when greater than 10,000 seed of a homozygous Cab-SU111 plant was sown on GM medium with 10 ppb 10015, then cold-treated and incubated as described above, eighteen seedlings were resistant to 10015 and were unaffected by neighboring seedlings.

Structure (SMILES): NC[C@H]1O[C@H](O[C@H]2[C@H](O)[C@@H](O[C@H]3O[C@H](CO)[C@@H](O)[C@H](N)[C@H]3O)[C@H](N)C[C@@H]2N)[C@H](O)[C@@H](O)[C@@H]1O [Kanamycin, reference compound]
- Kanamycin Resistant (plants demonstrating result/total plants) ([1]; AGS502 (Control)): 6/9
- Kanamycin Resistant (plants demonstrating result/total plants) ([1]; SuFe21.2): 7/10
- Kanamycin Resistant (plants demonstrating result/total plants) ([1]; SuFe21.5): 8/10
- Kanamycin Resistant (plants demonstrating result/total plants) ([1]; SuFe21.6): 9/10
- Kanamycin Resistant (plants demonstrating result/total plants) ([1]; SuFe21.7): 7/10
- Kanamycin Resistant (plants demonstrating result/total plants) ([1]; SuFe21.8): 8/9
- Kanamycin Resistant (plants demonstrating result/total plants) ([1]; SuFell.1): 7/9
- Kanamycin Resistant (plants demonstrating result/total plants) ([1]; SuFell.11): 7/8
- Kanamycin Resistant (plants demonstrating result/total plants) ([1]; SuFell.3): 5/10
- Kanamycin Resistant (plants demonstrating result/total plants) ([1]; SuFell.4): 7/10
- Kanamycin Resistant (plants demonstrating result/total plants) ([1]; SuFell.7): 9/10
- Kanamycin Resistant (plants demonstrating result/total plants) ([1]; SuFell.8): 10/10
- #R number of resistant seedlings ([2]; T2 seed ID 12-1, pCab-SU111): 11
- #S number of sensitive seedlings ([2]; T2 seed ID 12-1, pCab-SU111): 6
- % R percent of seedlings which are resistant ([2]; T2 seed ID 12-1, pCab-SU111): 65%
- #R number of resistant seedlings ([2]; T2 seed ID 12-2, pCab-SU111): 0
- #S number of sensitive seedlings ([2]; T2 seed ID 12-2, pCab-SU111): 12
- % R percent of seedlings which are resistant ([2]; T2 seed ID 12-2, pCab-SU111): 0%
- #R number of resistant seedlings ([2]; T2 seed ID 12-4, pCab-SU111): 13
- #S number of sensitive seedlings ([2]; T2 seed ID 12-4, pCab-SU111): 18
- % R percent of seedlings which are resistant ([2]; T2 seed ID 12-4, pCab-SU111): 42%
- #R number of resistant seedlings ([2]; T2 seed ID 12-5, pCab-SU111): 0
- #S number of sensitive seedlings ([2]; T2 seed ID 12-5, pCab-SU111): 20
- % R percent of seedlings which are resistant ([2]; T2 seed ID 12-5, pCab-SU111): 0%
- #R number of resistant seedlings ([2]; T2 seed ID 12-6, pCab-SU111): 15
- #S number of sensitive seedlings ([2]; T2 seed ID 12-6, pCab-SU111): 9
- % R percent of seedlings which are resistant ([2]; T2 seed ID 12-6, pCab-SU111): 62%
- #R number of resistant seedlings ([2]; T2 seed ID 12-7, pCab-SU111): 21
- #S number of sensitive seedlings ([2]; T2 seed ID 12-7, pCab-SU111): 7
- % R percent of seedlings which are resistant ([2]; T2 seed ID 12-7, pCab-SU111): 75%
- #R number of resistant seedlings ([2]; T2 seed ID 12-8, pCab-SU111): 6
- #S number of sensitive seedlings ([2]; T2 seed ID 12-8, pCab-SU111): 5
- % R percent of seedlings which are resistant ([2]; T2 seed ID 12-8, pCab-SU111): 55%
- #R number of resistant seedlings ([2]; T2 seed ID 12-9, pCab-SU111): 13
- #S number of sensitive seedlings ([2]; T2 seed ID 12-9, pCab-SU111): 3
- % R percent of seedlings which are resistant ([2]; T2 seed ID 12-9, pCab-SU111): 81%
- #R number of resistant seedlings ([2]; T2 seed ID 12-10, pCab-SU111): 0
- #S number of sensitive seedlings ([2]; T2 seed ID 12-10, pCab-SU111): 21
- % R percent of seedlings which are resistant ([2]; T2 seed ID 12-10, pCab-SU111): 0%
- #R number of resistant seedlings ([2]; T2 seed ID 12-11, pCab-SU111): 0
- #S number of sensitive seedlings ([2]; T2 seed ID 12-11, pCab-SU111): 9
- % R percent of seedlings which are resistant ([2]; T2 seed ID 12-11, pCab-SU111): 0%
- #R number of resistant seedlings ([2]; T3 seed ID 12-1-1, pCab-SU111): 184
- #S number of sensitive seedlings ([2]; T3 seed ID 12-1-1, pCab-SU111): 0
- % R percent of seedlings which are resistant ([2]; T3 seed ID 12-1-1, pCab-SU111): 100%
- #R number of resistant seedlings ([2]; T3 seed ID 12-1-2, pCab-SU111): 191
- #S number of sensitive seedlings ([2]; T3 seed ID 12-1-2, pCab-SU111): 0
- % R percent of seedlings which are resistant ([2]; T3 seed ID 12-1-2, pCab-SU111): 100%
- #R number of resistant seedlings ([2]; T3 seed ID 12-1-3, pCab-SU111): 136
- #S number of sensitive seedlings ([2]; T3 seed ID 12-1-3, pCab-SU111): 41
- % R percent of seedlings which are resistant ([2]; T3 seed ID 12-1-3, pCab-SU111): 77%
- #R number of resistant seedlings ([2]; T3 seed ID 12-1-4, pCab-SU111): 98
- #S number of sensitive seedlings ([2]; T3 seed ID 12-1-4, pCab-SU111): 39
- % R percent of seedlings which are resistant ([2]; T3 seed ID 12-1-4, pCab-SU111): 72%
- #R number of resistant seedlings ([2]; T3 seed ID 12-1-5, pCab-SU111): 161
- #S number of sensitive seedlings ([2]; T3 seed ID 12-1-5, pCab-SU111): 56
- % R percent of seedlings which are resistant ([2]; T3 seed ID 12-1-5, pCab-SU111): 74%
- #R number of resistant seedlings ([2]; T3 seed ID 12-1-6, pCab-SU111): 254
- #S number of sensitive seedlings ([2]; T3 seed ID 12-1-6, pCab-SU111): 75
- % R percent of seedlings which are resistant ([2]; T3 seed ID 12-1-6, pCab-SU111): 77%
- #R number of resistant seedlings ([2]; WT): 0
- #S number of sensitive seedlings ([2]; WT): 77
- % R percent of seedlings which are resistant ([2]; WT): 0%
